Measured values from article PMC7423395, “Male-predominant galanin mediates androgen-dependent aggressive chases in medaka” (eLife, 2020).

How the values were obtained:
Assay type in all cases: in vivo, medaka (Oryzias latipes)
[1] = tested on: gal-expressing neurons in brain nuclei; assay: Number of gal-expressing neurons by in situ hybridization in gonadectomized, sex steroid-treated fish; details: 100 ng/ml by immersion for 6 days, n = 5 per group; for ovariectomy-induced increase in the number of gal-expressing neurons in pPMp, effect of steroid treatment: ovariectomized adult females
Source text: (§1) For both male and female fish, the gonad was removed under tricaine methane sulfonate anesthesia (0.02%) (Sigma-Aldrich, St. Louis, MO) through a small incision made in the ventrolateral abdominal wall. Immediately after removal of the gonad, the incision was sutured with nylon thread. Sham-operated fish received the same surgical treatment as gonadectomized fish, except for removal of the gonad. After a recovery period of 3 days in saline (0.9% (w/v) NaCl), gonadectomized fish were immersed in water containing 100 ng/ml of KT (Cosmo Bio, Tokyo, Japan) or E2 (Fujifilm Wako Pure Chemical Corporation), or vehicle (ethanol) alone for 6 days and then sampled. Sham-operated fish were treated with vehicle alone and used as controls. In another experiment, females of gal knockout lines with intact ovaries were treated with 100 ng/ml of KT by immersion in water for 10 days and then sampled. The sex steroid concentration used was based on previously reported serum steroid levels in medaka ([Foran et al., 2002]; [Foran et al., 2004]; [Tilton et al., 2003]).
The procedure for single-label in situ hybridization has been described previously ([Hiraki et al., 2012]). In brief, whole brains were fixed in 4% paraformaldehyde (PFA) and embedded in paraffin. Serial coronal sections of 10 μm thickness were cut and hybridized with the DIG-labeled galr1 or galr2 probe or the same DIG-labeled gal probe used for Northern blot analysis. Hybridization signals were visualized by using alkaline phosphatase-conjugated anti-DIG antibody and 5-bromo-4-chloro-3-indolyl phosphate/nitro blue tetrazolium (BCIP/NBT) substrate (Roche Diagnostics). Color development was allowed to proceed for more than 5 hr, or was stopped after 15 min (for quantification of gal expression in males that were castrated and treated with sex steroids) or 1 hr (for quantification of gal expression in females that were ovariectomized and treated with sex steroids) to avoid saturation. All sections in each comparison were processed simultaneously under the same conditions. For galr1, for which hybridization signals were detected throughout the brain and thus the specificity of the staining was somewhat uncertain, in situ hybridization was also performed using a sense probe under conditions identical to those used for the antisense probe. No signal was obtained by the sense probe, confirming that the signals obtained by the antisense probe represented specific staining.
To obtain quantitative data, the number of gal-expressing neurons in each brain nucleus was counted manually. […] In this case, the total number of the neurons in the nuclei was counted. Only intensively labeled neurons with a clearly defined cell body were counted to reduce, if not eliminate, the likelihood of double counting of the neurons split between sections. […]

[2] = tested on: gal expression in the whole brain; assay: Whole-brain gal expression by real-time PCR in gonadectomized, sex steroid-treated fish; details: castrated adult males, 100 ng/ml by immersion in water for 6 days, normalized to actb, versus castrated vehicle
Source text: as §1, with “In another experiment, females of gal knockout lines with intact ovaries were treated with 100 ng/ml of KT by immersion in water for 10 days and then sampled. The sex steroid concentration used was based on previously reported serum steroid levels in medaka ([Foran et al., 2002]; [Foran et al., 2004]; [Tilton et al., 2003]).” left out
In cases where there were fewer than seven data points per experimental group, individual data points were plotted with the mean ± standard error of the mean (SEM); in cases where there were seven or more data points per experimental group, data were plotted as box and whisker plots by the Tukey method for clarity. In real-time PCR analysis, the expression level of gal (normalized to that of actb) in female whole brain was arbitrarily set to 1, and the relative difference was calculated in each data set to facilitate comparisons among data sets.

adult female medaka = assay: Aggressive behavior test of KT-treated females; details: 100 ng/ml KT by immersion for 10 days, main effect of androgen treatment
Source text: For both male and female fish, the gonad was removed under tricaine methane sulfonate anesthesia (0.02%) (Sigma-Aldrich, St. Louis, MO) through a small incision made in the ventrolateral abdominal wall. Immediately after removal of the gonad, the incision was sutured with nylon thread. Sham-operated fish received the same surgical treatment as gonadectomized fish, except for removal of the gonad. After a recovery period of 3 days in saline (0.9% (w/v) NaCl), gonadectomized fish were immersed in water containing 100 ng/ml of KT (Cosmo Bio, Tokyo, Japan) or E2 (Fujifilm Wako Pure Chemical Corporation), or vehicle (ethanol) alone for 6 days and then sampled. […]
All behavioral procedures were conducted in 2-l rectangular tanks contained within a large recirculating water system with a constant influx of dechlorinated tap water. […] The partitions were then removed, and the fish were allowed to interact for 20 min while their behavior was recorded as described above. […]
In each test, wild-type, heterozygous, and homozygous siblings reared under the same conditions were used as the comparison group. The total number of each aggressive act (chase, fin display, circle, strike, and bite) performed by the four fish in the tank was counted manually from the video recordings. In addition, the total number of chases by the four fish in the tank was calculated for each 5 min interval during the test period. […]

Compound | number of gal-expressing neurons in aPMp/pPPa ([1]; castrated adult males) | ovariectomy-induced increase in the number of gal-expressing neurons in pPMp, effect of steroid treatment [1] | number of gal-expressing neurons in pPMp reduced by castration, effect of steroid treatment ([1]; castrated adult males) | level of brain gal expression reduced by castration, effect of steroid treatment [2] | number of bites (adult female medaka; adult females of gal knockout lines Δ2 and Δ10, 20 min test) | number of chases (adult female medaka; adult females of gal knockout lines Δ2 and Δ10 with intact ovaries, four fish per tank, 20 min, n = 6 per group)
C[C@]12CC[C@@H]3c4ccc(O)cc4CC[C@H]3[C@@H]1CC[C@@H]2O [E2, estradiol-17β] | increased | significantly attenuated |  |  |  | 
C[C@]12CC(=O)[C@H]3[C@@H](CCC4=CC(=O)CC[C@@]43C)[C@@H]1CC[C@@H]2O [KT, 11-ketotestosterone] |  | further enhanced | restored by KT treatment | restored by treatment with KT | significantly increased | significantly increased
